Source: patent US9452177B2, “Vitamin D compounds and methods for reducing ocular hypertension (OHT)” (Wisconsin Alumni Research Foundation, priority 2008, dated 2016)

Key:
[1] = system: genes known to be involved in the regulation of IOP; experiment: Rat intestine and mouse calvarial cell microarrays (gene expression)
Protocol: Vitamin D-deficient rats were given one bolus intravenous dose of 730 ng of 1,25-(OH)2D3/kg of body weight in ethanol or ethanol vehicle (control). Rats were anesthetized with isofluorane and decapitated 1, 3, 6, 10 and 24 h after injection of the dose or vehicle. There were three rats in each group for each time point. Blood was collected at the same time for determination of changes in serum calcium concentration. For each rat, the first 15 cm of intestine (duodenum) was removed, slit longitudinally and scraped with a glass slide. The mucosa was placed in a vial with GTC extraction buffer supplemented with 2% of β-mercaptoethanol (PolyATtract System 1000, Promega Corp., Madison, Wis.), homogenized at high speed with PowerGen 700 (Fisher Scientific, Pittsburgh, Pa.), flash frozen in liquid N2 and stored at −80° C. Experiments were done in duplicate.
For each time point, Poly(A+) RNA was isolated from pooled homogenized mucosa of three 1,25-(OH)2D3 or three vehicle treated rats. The mRNA was isolated using the PolyATtract System 1000 (Promega Corp., Madison, Wis.). The mRNA was purified using an RNeasy kit (Qiagen, Chatsworth, Calif.). The quality, integrity and quantity of the Poly(A+) RNA were determined by agarose gel electrophoresis, UV absorption spectrophotometry and the use of Agilent Bioanalyser 2100 (Agilent Technologies, Palo Alto, Calif.).
Primary fetal mouse calvarial cells were isolated and cultured in αMEM containing 10% FBS as described [Shevde, 2002]. Cells were plated in the 2×6-well plates (5×10^5 cells/well) and cultured with medium changes performed on days 1 and 4. On day 4 cells on 1 plate were treated with 1,25(OH)2D3 (10 nM final concentration). Second plate was used as the control. After 24 h of incubation with 1,25(OH)2D3, cells were harvested and total RNA was isolated with Trizol reagent (Invitrogen Life Technologies, Carlsbad, Calif.). The mRNA was further purified using an RNeasy kit (Qiagen, Chatsworth, Calif.). The quality, integrity and quantity of the total RNA were assessed by agarose gel electrophoresis and UV absorption spectrophotometry. Experiments were done in triplicates. […]
The hybridization reaction and the automated hybridization procedure were performed by the Gene Expression Center at the Biotechnology Center at the University of Wisconsin-Madison as described (Kutuzova, 2004). Each probe was tested on an Affymetrix Test3 Array and the quality of the cDNA and cRNA was determined by a 3′/5′ ratio of housekeeping genes within the array (ubiquitin, rat glyceraldehyde 3-phosphate dehydrogenase, β-actin, and hexokinase). […] Expression data were analyzed using the Affymetrix Microarrray Suite software version 5.0 (MAS 5.0). […]

[2] = Serum Ca2+ level after ocular topical applications; format: in vivo, cynomolgus monkeys (Macaca fascicularis); conditions: 5 μg, 3 days, total 5 unilateral topical applications
Protocol: Under ketamine anesthesia (KETAJECT™, Phoenix Pharmaceutical, St Joseph, Mo. (3-25 mg/kg i.m., supplemented with 1-10 mg/kg i.m. as needed) baseline IOP was determined, usually between 7:30 and 9 am (2 readings, 5 minutes apart; if IOP baseline measurements were not within 2-3 mm Hg of each other, a 3rd reading was taken 5 min later). Baseline IOP was at least 15 mmHg if possible. A baseline blood sample was taken from the femoral artery or vein, or sometimes the brachial vein (1-2 ml). This was allowed to clot and then spun down (3000 rpm for 10 min, Damon/IEC NH-SII centrifuge) and the serum removed and frozen at −20 C for no more than 1 week. Baseline systolic, diastolic and mean arterial pressure as well as heart rate were recorded with the Dinamap monitor from a cuff placed around the arm or the leg.
On the 3th day, prior to the 5th treatment, baseline IOP, biomicroscopy and MAP were determined. […] Following the 5th dose, IOP was measured at 1, 2, 3, 4, 5, 6, 7, 8, 12 (if possible), 24, and sometimes 48 hr. […] MAP on day 3 (some protocols) was determined at 1, 2, 3, 4, 5, 6, 7, 8, 24 and sometimes 48 hr if possible. […] For some protocols, IOP was also measured prior to each treatment; MAP was measured prior to the morning treatment; blood was collected prior to the afternoon treatment. […]

[3] = rat 730 ng/kg i.v., mouse calvarial cells 10 nM, 24 h

C=C1/C(=C\C=C2/CCC[C@]3(C)[C@@H]([C@H](C)CCCC(C)(C)O)CC[C@@H]23)C[C@@H](O)C[C@@H]1O [1,25-(OH)2D3, 1α,25-dihydroxyvitamin D3]
expression of vasoactive intestinal peptide, topoisomerase I, MMP2 ([1]; data not shown): decreased expression | expression of ACTG2, ATP1A1, AQP1, CEACAM, FN1, CD44 and TIMP3 [1, 3]: Significantly down-regulated | expression of PTGER4, MMP3, MMP11 and MMP13 [1, 3]: Significant increases | mRNA expression for carbonic anhydrase I (CAI), angiotensin I converting enzyme (ACE) and actin alpha (ACTA1) [1, 3]: strong reductions | blood serum calcium levels [2]: did not change
